Where two headings read alike, the source gives them in different places.
Key:
[1] = human, in vivo
Source text: Performed similarly to Example 1 with same study drug but for Diffuse Intrinsic Pontine Glioma (DIPG) and with typically only radiation therapy performed prior.
Performed similarly to Example 1 but with an increase in the number of subspots per sonication (32 subspots). Targets were overlapped with a 2.0-3.0 mm spot to spot separation and Duty Cycle within 4-32% throughout the study. Pulse duration ranged from 0.0002 to 0.002 second.
Similar to Example 1, this multi-center, non-randomized, open label, first-in-pediatric Phase 1/2 study is a drug dose (5, 10, or 15 mg/kg SONALA-001) and focused ultrasound energy (200J, 400J, or 800J) escalation study containing 18-24 subjects, 9 cohorts of approximately 3 patients each. These pediatric patients with DIPG must have completed standard-of-care radiotherapy prior to radiographic treatment. No resection due to location but biopsy can be obtained. In the first patient, half of the Pons volume is targeted with MRgFUS and the other half serves as an internal control for safety. If no DLTs or any grade intracranial hemorrhage and any clinical symptoms (CTCAE, Version 5.0, i.e., intracranial hemorrhage Grades 2-5) are observed, the next patients will receive treatment over the entire pons. The intervention model will be sequential assignment using a Bayesian optimal interval (BOIN) dose escalation method. […]

[2] = Drug and device safety of 5-ALA SDT in recurrent GBM patients (Phase 0/1); assay type: in vivo, human; details: three adult recurrent GBM patients
Procedure: Six hours prior to MRgFUS, adult patients with recurrent GBM are administered SONALA-001 (10 mg/kg), an investigational IV formulation of […]. Oral […] is an FDA- and […] agent used in fluorescence-guided surgery to visualize glioma infiltration and maximize extent of resection. The […] Model 4000 Type-2 system is an investigational MRgFUS with a 1000-element transducer utilizing real-time MR imaging during treatment delivery. It includes the same monitoring capabilities as the ablative, FDA-approved Type-1 system for essential tremor and tremor-dominant Parkinson's Disease. However, the Type-2 device can target a large range of brain anatomy and operates at relatively low ultrasound frequencies and intensities, preventing tissue heating when inducing sonoluminescence. Intra-procedural MR thermometry automatically triggers an auto-stop if any tissue approaches ablative temperatures. […] Patients must have completed standard-of-care chemotherapy and radiotherapy prior to radiographic recurrence. In a Dose-Escalation Arm, 9-18 patients are assigned to one of three ascending acoustic energy doses of […], measured at transducer surface), followed by a four-day interval until tumor resection. In each patient, half the tumor volume, including Gadolinium-enhancing and non-enhancing tumor, is targeted with MRgFUS and the other half serves as an internal control. […]

[3] = Plasma and blood pharmacokinetics of 5-ALA and PPIX after IV SONALA-001 (LC-MS/MS); assay type: in vivo; details: human, plasma; 10 mg/kg IV Sonala-001; recurrent GBM patients; read-out: median Cmax for 5-ALA in plasma
Procedure: Six hours prior to MRgFUS, adult patients with recurrent GBM are administered SONALA-001 (10 mg/kg), an investigational IV formulation of […]. Oral […] is an FDA- and […] agent used in fluorescence-guided surgery to visualize glioma infiltration and maximize extent of resection. LCMS/MS methods were developed to determine the levels of […] and PPIX in plasma and blood following IV administration of SONALA-001. Samples were analyzed using SCIEX ExionLC UHPLC system and the detection was performed on SCIEX QTRAP 6500+ mass spectrometer by multiple reaction monitoring mode to monitor the precursor-to-product ion transitions in positive electrospray ionization mode.

NCC(=O)CCC(=O)O [5-ALA, 5-aminolevulinic acid]
5-ALA-related photosensitivity [1]: No patient demonstrated 5-ALA-related photosensitivity | 5-ALA-related photosensitivity [2]: No patient demonstrated 5-ALA-related photosensitivity | Cmax [3]: 307 µM
